This is an account of results in publication PMC7247319, “The mitochondria-targeted peptide SS-31 binds lipid bilayers and modulates surface electrostatics as a key component of its mechanism of action” (The Journal of Biological Chemistry, 2020).

Where a SMILES comes first, the peptide text is derived from it. [ ]: non-standard residue; d: D form. Dmt = Cc1cc(O)cc(C)c1C[C@H](N)C(=O)O

The test system of the assay is LUVs with POPC only. Put plainly: SS-31 binding isotherms by endogenous 2′,6′-Dmt fluorescence. The conditions noted are these: even at the highest lipid concentrations used. The text has this:
The interaction of basic amphipathic peptides with negatively charged membranes depends on the electric field originating from the bilayer surface as well as specific electrostatic and hydrophobic interactions between the peptide and lipids (Fig. S2). The first objective of this study was to quantitatively evaluate the binding of SS-31 to model membranes with specific lipid composition. For spectroscopic analysis of SS-31 binding, we made use of the endogenous spectral properties of the 2′,6′-dimethyltyrosine (2′,6′-Dmt) side chain at the second position in the peptide. Our initial spectral characterization of SS-31 confirmed the feasibility of using endogenous peptide fluorescence to quantify peptide-membrane interactions (supporting Results A and B and Figs. S3 and S4). We therefore proceeded to measure the binding of SS-31 to large unilamellar vesicles (LUVs) containing anionic lipids in a host background of the zwitterionic lipid 1-palmitoyl-2-oleoyl-sn-glycero-3-phosphocholine (POPC, 16:0/18:1 PC). […]
Figure 2. […] A–C, fluorescence-based measurements. […] Statistical differences within each data set were determined relative to TOCL-containing membranes: •, p < 0.05; ••, p < 0.01. […]

`Cc1cc(O)cc(C)c1C[C@H](NC(=O)[C@H](N)CCCNC(=N)N)C(=O)N[C@@H](CCCCN)C(=O)N[C@@H](Cc1ccccc1)C(N)=O` [SS-31, D-Arg-2′6′-dimethyl-Tyr-Lys-Phe-NH2] (H-[dR][Dmt]KF-NH2): the “binding in the absence of anionic lipid” value is given as “negligible”.
